Measured values reported in patent US20200079786A1, “ANALOGS OF […] AS SOLUBLE EPOXIDE HYDROLASE INHIBITORS” (UNIVERSITAT DE BARCELONA, priority 2015, published 2020).

How the values were obtained:
[1] = tested on: Huh-7 cells; experiment: Amelioration of palmitate-induced ER stress: ATF3, BiP and CHOP mRNA by real-time PCR; format: cell-based; details: palmitate 0.5 mM + inhibitor 1 μM, 48 h
Protocol: Huh-7 cells were maintained in a humid atmosphere of 5% CO2 at 37° C. in high glucose (25 mM) Dulbecco's modified Eagle's medium supplemented with 10% heat-inactivated fetal bovine serum, 1% of penicillin/streptomycin (10.000 units/mL of penicillin and 10.000 μg/mL of streptomycin) and 1% of amphotericin B (250 μg/mL).
Huh-7 cells were serum-starved overnight prior treatment. […] For RNA extraction, cells were pre-treated with the inhibitors (final concentration 1 μM) for 1 hour before treatment with palmitate (final concentration 0.5 mM) and inhibitors (final concentration 1 μM). For each condition, at least 3 replicates were performed. Following 48 hours of incubation, RNA were extracted as described below.
Total RNA in hepatocytes was harvested by TRIsure (Bioline) according to the manufacturer's instructions. The extracted RNA was dissolved in RNase-free water and concentrations of total RNA were quantified using a NanoDrop 2000c spectrophotometer (Thermo Scientific). First-stranded cDNA was synthesized from 0.5 μg total RNA (Life Technologies). […] The PCR reaction contained 10 ng of reverse-transcribed RNA, 2× IQ™ SYBRGreen Supermix (BioRad, Barcelona, Spain) and 900 nmol/L concentration of each primer. Optical primer amplification efficiency for each primer set was assessed and a dissociation protocol was carried out to assure a single PCR product. PCR assays were performed on a MiniOpticon™ Real-Time PCR system (BioRad). Thermal cycling conditions were as follows: activation of Taq DNA polymerase at 95° C. for 10 min, followed by 40 cycles of amplification at 95° C. for 15 sec and 60° C. for 1 min. The relative levels of specific mRNA were estimated from the value of the threshold cycle (Ct) of the real-time PCR adjusted by that of a housekeeping gene (GAPDH) through the formula […] (ΔCt=Gene of interest Ct-GAPDH Ct). Cf.

[2] = Parallel artificial membrane permeation assay for blood-brain barrier (PAMPA-BBB); format: in vitro ADME, porcine; details: PBS:EtOH (70:30)
Protocol: The in vitro permeability (Pe) of the test compounds through lipid extract of porcine brain membrane was determined. Assayed compounds were tested using a mixture of PBS:EtOH (70:30). […] From this equation and taking into account the limits established by Di et al. for BBB permeation, the ranges of permeability were established, as follows.

[3] = target: CYP2C19 (Homo sapiens, UniProt P33261); experiment: Inhibition of human cytochrome P450 CYP2C19; format: in vitro ADME; details: human cytochrome P450 enzyme
Source text: The epoxidation of arachidonic acid (AA) by selected cytochrome P450 epoxygenases generates epoxyeicosatrienoic acids (EETs). These EETs show anti-inflammatory, antihypertensive, analgesic, angiogenic, and antiatherosclerotic effects in rodents and humans. sEH converts EETs to their corresponding dihydroxyeicosatrienoic acids (DHETs), whereby the biological effects of EETs are diminished, eliminated, or altered. Among the P450 enzymes, it is known that CYP2C19 and CYP1A2 have the highest formation rate of EETs from AA (cf. A. A. El-Sherbeni et al. “Repurposing resveratrol and fluconazole to modulate human cytrochrome P450-mediated arachidonic acid metabolites”, Molecular Pharmaceutics 2016, vol. 13, pp. 1278-1288). For this reason, a highly desirable aspect of any new sEH inhibitor is selectivity in front of CYP2C19 and CYP1A2.

[4] = target: T1, sEH in AR42j cells (Rattus norvegicus, UniProt P80299); experiment: In vitro determination of sEH inhibition activity in AR42j cells (cell-based fluorescent assay); details: AR-42J, read-out: % Inhn. ± SE (100 μM), sEH inhibition activity in cell culture
T1 sequence (P80299 1-554): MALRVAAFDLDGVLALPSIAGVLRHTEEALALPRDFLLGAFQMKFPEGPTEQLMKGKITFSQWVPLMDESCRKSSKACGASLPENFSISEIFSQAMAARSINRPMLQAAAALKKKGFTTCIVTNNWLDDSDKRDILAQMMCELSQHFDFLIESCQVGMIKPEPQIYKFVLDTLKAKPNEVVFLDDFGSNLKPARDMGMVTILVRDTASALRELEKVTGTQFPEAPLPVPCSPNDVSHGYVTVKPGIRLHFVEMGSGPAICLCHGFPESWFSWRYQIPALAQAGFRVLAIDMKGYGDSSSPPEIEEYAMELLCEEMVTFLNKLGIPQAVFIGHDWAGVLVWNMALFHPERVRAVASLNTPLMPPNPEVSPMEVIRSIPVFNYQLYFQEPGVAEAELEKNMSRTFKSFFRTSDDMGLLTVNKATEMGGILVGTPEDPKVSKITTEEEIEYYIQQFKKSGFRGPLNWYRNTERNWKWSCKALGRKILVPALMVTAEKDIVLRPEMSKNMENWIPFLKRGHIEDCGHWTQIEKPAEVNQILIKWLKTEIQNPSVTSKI
Protocol: Solutions Preparation: • Assay buffer 1×: add 10 mL of the CBA-Buffer (10×) to 90 mL of distilled water. • Lysis Buffer: add 50 μL of the CBA Digitonin Solution to 10 mL of Buffer Assay 1×. • Substrate Solution: dilute 10 μL of CBA sEH Substrate with 10 mL of Assay Buffer 1×. • Standards: preparation of 7 concentrations of CBA 6-methoxy-2-naphtalaldehyde from 0 until 2 M with Assay Buffer 1×. • sEH Positive Control: Prepare another stock A (1 μg/ml: 1 μL CBA sEH Positive Control+1 mL Assay Buffer 1×). From the already prepared stock A, prepare 250 μL of sEH (10 ng/mL): 2.5 μL sEH stock A+250 μL Assay Buffer 1×). • sEH Inhibitor AUDA: dilute 10 μL CBA sEH Inhibitor with 500 ml Assay Buffer 1×. • Inhibitors dissolved in DMSO at appropriated concentrations.
Seed cells in a 96-well plate at a density of (2×10^4)-(5×10^4) cells/well in 100 μL of culture medium with or without compounds to be tested. Incubation of the cells in a CO2 incubator at 37° C. for 48 hours. Aspirate the culture medium and add 200 μL of Assay Buffer 1× to each well. Centrifuge the plate at 800 rmp for 5 minutes. Aspirate the supernatant and add 100 μL of Lysis Buffer to each well. Incubate with gentle shaking on an orbital shaker for 30 minutes at room temperature. Centrifuge the plate at 3000 rpm for 20 minutes at 4° C. Transfer 90 μL of the supernatants to the 96-Well Solid Plate (black). Add 10 μL Assay Buffer 1× or 10 μL of the AUDA solution to appropriate wells. For positive control wells, add 100 μL of the 10 ng/mL sEH Positive Control to two wells. Add 200 μL of 6-methoxy-2-Naphthaldehyde Standards to corresponding wells of the black plate. Add 100 μL of the sEH Substrate Solution to each well, except the standards. Incubate the plate at 37° C. for 30 minutes. […] The intensity of fluorescence was used to analyze and calculate inhibition percentages, shown in the Table as average of minimum three independent replicates.

Sequence of CYP2C19 (P33261 whole entry): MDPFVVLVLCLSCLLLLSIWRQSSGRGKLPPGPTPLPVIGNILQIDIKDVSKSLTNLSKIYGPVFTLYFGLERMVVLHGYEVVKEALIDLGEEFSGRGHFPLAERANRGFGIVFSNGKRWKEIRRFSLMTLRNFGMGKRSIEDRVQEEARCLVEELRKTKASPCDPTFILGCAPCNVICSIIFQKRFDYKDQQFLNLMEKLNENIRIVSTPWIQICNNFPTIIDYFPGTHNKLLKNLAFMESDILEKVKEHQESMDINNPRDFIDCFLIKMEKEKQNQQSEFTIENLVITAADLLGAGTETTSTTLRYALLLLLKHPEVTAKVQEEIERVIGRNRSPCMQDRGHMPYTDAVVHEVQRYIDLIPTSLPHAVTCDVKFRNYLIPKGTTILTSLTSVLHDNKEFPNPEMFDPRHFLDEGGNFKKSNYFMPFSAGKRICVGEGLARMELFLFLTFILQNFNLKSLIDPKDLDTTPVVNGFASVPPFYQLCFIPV

O=C(N[C@]12CC3C[C@@H](C[C@H](C3)O1)C2)N[C@H]1CC[C@H](Oc2ccc(C(=O)O)cc2)CC1 [Ig, trans-1-(2-oxaadamantan-1-yl)-3-[4-(4-carboxyphenoxy)cyclohexyl]urea]
Level of CHOP mRNA ([1]; control (CT) = 100.0, PAL alone 224.5): 147.6 ± 15.9^(##)
Level of BiP mRNA ([1]; control (CT) = 100.0, PAL alone 242.9): 174.9 ± 31.4^(#)
Level of ATF3 mRNA ([1]; control (CT) = 100.0, PAL alone 585.5): 286.7 ± 59.9^(###)
CNS prediction [2]: CNS+ (Compounds of high BBB permeation (CNS+): Pe (10^6 cm s^−1)>5.181)
inhibition at 1 µM [3]: ≤ 6%
inhibition at 100 µM [4]: 58.3 ± 3.2%
